Data set [1] is described as follows: Acute toxicity (oral, mortality after 72 hours). The settings on record: mouse, in vivo. The procedure: Groups of 10 male dd mice weighing some 18 g were orally administered the examined drugs and the number of death p 72 hours later was recorded.
Data set [2] deals with dd mice. The data set can be described thus: Analgesic effects by a modified Haffner method. In kind it is in vivo, mouse (dd mice). The settings on record: with morphine hydrochloride 2 mg/kg s.c. The procedure: Group of 10 dd mice were orally administered the examined drugs and 30 minutes later 2 mg/kg of morphine hydrochloride, the threshold dose, was injected subcutaneously. At 15, 30, 45 and 60 minutes thereafter, the root of mouse's tail was squeezed with a Kocher's forceps.

Data set [3] concerns dd mice. The data set can be described thus: Analgesic effects by acetic acid writhing test. The class given is in vivo, mouse (male dd mice). The procedure: 30 minutes after the examined drug was orally given, 0.1 ml/10 g of 0.6% acetic acid solution was intraperitoneally administered to group of 10 male dd mice weighing some 18 g. The number of stretching was calculted during an observation period of 15 to 20 minutes after acetic acid treatment. The average inhibition rate of stretching among 8 animals was regarded as the inhibition rate of the drug, excluding 2 animals showing maximum and minimum numbers of stretching.
In general terms: In writhing tests, fewer writhes than in controls are read as antinociception.

Setting [4] is: 800 mg/kg oral, 72 hours, read-out: Mortality.
The mark [5] stands for this setting: 400 mg/kg oral, 72 hours, read-out: Mortality.

Each structure is given as a SMILES string. Read-outs that look alike come from different tables or passages of the source.

The mortality is the percentage killed. Turning to `Cc1c(N(C)C)c(=O)n(-c2ccccc2)n1C` [Aminopyrine, reference compound], the mortality at 72 h in data set [1] (setting [4]) was 100%. The Analgesic effects in the data set on dd mice [2] (100 mg/kg oral) turned out to be 30%; in the data set with dd mice [2] (200 mg/kg oral), 35%. The “Analgesic effects (inhibition rate of stretching)” value in the data set on dd mice [3] (50 mg/kg oral) was 14%; with dd mice [3] (100 mg/kg oral), 47%; with dd mice [3] (150 mg/kg oral), 60%.

For `CC(C(=O)O)c1cc(Cl)c2c(c1)C=CC(C)(C)N2` (stereo not drawn) [Compound 35, 2-(8-Chloro-1,2-dihydro-2,2-dimethylquinolin-6-yl)propionic acid], the mortality at 72 h in data set [1] (setting [5]) was 0%; in data set [1] (setting [4]) it was 20%. For the same compound, the values for the Analgesic effects with dd mice [2] (100 mg/kg oral) and in the data set on dd mice [2] (200 mg/kg oral) were 35% and 50%, respectively. In addition, the “Analgesic effects (inhibition rate of stretching)” value with dd mice [3] (50 mg/kg oral) is 37%; with dd mice [3] (100 mg/kg oral), 52%; with dd mice [3] (150 mg/kg oral), 68%.

As to `CC(C(=O)O)c1cc(Cl)c2c(c1)CCC(C)(C)N2` (stereo not drawn) [Compound 36, 2-(8-Chloro-1,2,3,4-tetrahydro-2,2-dimethylquinolin-6-yl)propionic acid], the values for the mortality at 72 h in data set [1] (setting [5]) and in data set [1] (setting [4]) were 0% and 10%, respectively. Moreover, the results for the Analgesic effects in the data set on dd mice [2] (100 mg/kg oral) and with dd mice [2] (200 mg/kg oral) were 30% and 55%, respectively. Further, the “Analgesic effects (inhibition rate of stretching)” value is on record as 36% in the data set with dd mice [3] (50 mg/kg oral), 61% with dd mice [3] (100 mg/kg oral) and 73% with dd mice [3] (150 mg/kg oral).

In data set [1] (po, 600 mg/kg), `CCCCC1C(=O)N(c2ccccc2)N(c2ccccc2)C1=O` [Phenylbutazone, reference compound] had a mortality at 72 h of 100%.

For the origin of these results see patent publication US4555513A, “1,2 Dihydro- and 1,2,3,4-tetrahydro quinolylacetic acids and analgesic use thereof” (priority 1982, dated 1985).
